Measured values taken from PubChem BioAssay (NCI).
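All cell lines were grown in 96-well plates and treated with compound for 48 hours. TGI denotes the concentration required for complete inhibition of growth.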

Key:
Assay in all cases: DTP human tumour cell line panel, 48 h
SW-620 colon = tested on: SW-620 colon
RXF 393 renal = tested on: RXF 393 renal
HCT-116 colon = tested on: HCT-116 colon
UACC-62 melanoma = tested on: UACC-62 melanoma
HCT-15 colon = tested on: HCT-15 colon
MALME-3M melanoma = tested on: MALME-3M melanoma
COLO 205 colon = tested on: COLO 205 colon
OVCAR-4 ovarian = tested on: OVCAR-4 ovarian
A549 NSCLC = tested on: A549 NSCLC
HOP-92 NSCLC = tested on: HOP-92 NSCLC
K-562 leukemia = tested on: K-562 leukemia
EKVX NSCLC = tested on: EKVX NSCLC
PC-3 prostate = tested on: PC-3 prostate
SNB-19 CNS = tested on: SNB-19 CNS
HT29 colon = tested on: HT29 colon
HOP-62 NSCLC = tested on: HOP-62 NSCLC
SF-295 CNS = tested on: SF-295 CNS
MDA-MB-231 breast = tested on: MDA-MB-231 breast
A498 renal = tested on: A498 renal
SF-539 CNS = tested on: SF-539 CNS
KM12 colon = tested on: KM12 colon
DU-145 prostate = tested on: DU-145 prostate
UO-31 renal = tested on: UO-31 renal
SF-268 CNS = tested on: SF-268 CNS
SNB-75 CNS = tested on: SNB-75 CNS
SK-MEL-28 melanoma = tested on: SK-MEL-28 melanoma
NCI-H23 lung = tested on: NCI-H23 lung
RPMI-8226 leukemia = tested on: RPMI-8226 leukemia
NCI-H460 lung = tested on: NCI-H460 lung
HCC-2998 colon = tested on: HCC-2998 colon
OVCAR-5 ovarian = tested on: OVCAR-5 ovarian
SR leukemia = tested on: SR leukemia
M14 melanoma = tested on: M14 melanoma
786-0 renal = tested on: 786-0 renal
OVCAR-8 ovarian = tested on: OVCAR-8 ovarian
SK-MEL-5 melanoma = tested on: SK-MEL-5 melanoma
UACC-257 melanoma = tested on: UACC-257 melanoma
MCF7 breast = tested on: MCF7 breast
NCI/ADR-RES ovarian = tested on: NCI/ADR-RES ovarian
CCRF-CEM leukemia = tested on: CCRF-CEM leukemia
OVCAR-3 ovarian = tested on: OVCAR-3 ovarian
U251 CNS = tested on: U251 CNS
MDA-N = tested on: MDA-N
CAKI-1 renal = tested on: CAKI-1 renal
TK-10 renal = tested on: TK-10 renal
T-47D breast = tested on: T-47D breast
IGROV1 ovarian = tested on: IGROV1 ovarian
HL-60(TB) leukemia = tested on: HL-60(TB) leukemia
MOLT-4 leukemia = tested on: MOLT-4 leukemia
SK-MEL-2 melanoma = tested on: SK-MEL-2 melanoma
MDA-MB-435 = tested on: MDA-MB-435
NCI-H226 lung = tested on: NCI-H226 lung
ACHN renal = tested on: ACHN renal
SK-OV-3 ovarian = tested on: SK-OV-3 ovarian

In the case of O=C1C(=O)c2c(O)ccc(O)c2C(O)=C1Cl, the TGI (SW-620 colon) is reported as over 100 µM, the TGI (RXF 393 renal) is reported as over 100 µM and the TGI (HCT-116 colon) is reported as over 100 µM. The TGI (UACC-62 melanoma) was over 100 µM, the TGI (HCT-15 colon) was over 100 µM and the TGI (MALME-3M melanoma) was 78.3 µM. It also gave a TGI (COLO 205 colon) of over 100 µM, a TGI (OVCAR-4 ovarian) of over 100 µM and a TGI (A549 NSCLC) of over 100 µM. The TGI (HOP-92 NSCLC) was over 100 µM, the TGI (K-562 leukemia) was over 100 µM and the TGI (EKVX NSCLC) was over 100 µM. For the same compound, the TGI (PC-3 prostate) was over 100 µM, the TGI (SNB-19 CNS) was over 100 µM and the TGI (HT29 colon) was over 100 µM. The TGI (HOP-62 NSCLC) was over 100 µM, the TGI (SF-295 CNS) was over 100 µM and the TGI (MDA-MB-231 breast) was over 100 µM. It also gave a TGI (A498 renal) of over 100 µM, a TGI (SF-539 CNS) of over 100 µM and a TGI (KM12 colon) of over 100 µM. For the same compound, the TGI (DU-145 prostate) was over 100 µM, the TGI (UO-31 renal) was over 100 µM and the TGI (SF-268 CNS) was over 100 µM. The TGI (SNB-75 CNS) was over 100 µM, the TGI (SK-MEL-28 melanoma) was over 100 µM and the TGI (NCI-H23 lung) was over 100 µM. The TGI (RPMI-8226 leukemia) was over 100 µM, the TGI (NCI-H460 lung) was over 100 µM and the TGI (HCC-2998 colon) was over 100 µM. For the same compound, the TGI (OVCAR-5 ovarian) was over 100 µM, the TGI (SR leukemia) was over 100 µM and the TGI (M14 melanoma) was over 100 µM. For the same compound, the TGI (786-0 renal) was over 100 µM, the TGI (OVCAR-8 ovarian) was over 100 µM and the TGI (SK-MEL-5 melanoma) was over 100 µM. The TGI (UACC-257 melanoma) was over 100 µM, the TGI (MCF7 breast) was over 100 µM and the TGI (NCI/ADR-RES ovarian) was over 100 µM. The TGI (CCRF-CEM leukemia) was over 100 µM, the TGI (OVCAR-3 ovarian) was over 100 µM and the TGI (U251 CNS) was over 100 µM. It also gave a TGI (MDA-N) of over 100 µM, a TGI (CAKI-1 renal) of over 100 µM and a TGI (TK-10 renal) of over 100 µM. For the same compound, the TGI (T-47D breast) was over 100 µM, the TGI (IGROV1 ovarian) was over 100 µM and the TGI (HL-60(TB) leukemia) was over 100 µM.
CN(C)c1ccc(/C=c2/c3ccccc3n3c2cc(-c2ccc(Cl)cc2)[n+]3C)cc1 showed a TGI (SW-620 colon) of 1.31 µM, a TGI (COLO 205 colon) of 0.211 µM and a TGI (OVCAR-4 ovarian) of 2.51 µM. The TGI (A549 NSCLC) was 1.87 µM, the TGI (EKVX NSCLC) was 2.41 µM and the TGI (PC-3 prostate) was 1.01 µM. It also gave a TGI (SNB-19 CNS) of 1.33 µM, a TGI (HOP-62 NSCLC) of 1.48 µM and a TGI (SF-295 CNS) of 1.77 µM. It also gave a TGI (A498 renal) of 3.45 µM, a TGI (SF-539 CNS) of 0.748 µM and a TGI (KM12 colon) of 0.264 µM. For the same compound, the TGI (DU-145 prostate) was 1.13 µM, the TGI (MOLT-4 leukemia) was over 100 µM and the TGI (SK-MEL-28 melanoma) was 1.9 µM. It also gave a TGI (RPMI-8226 leukemia) of 0.566 µM, a TGI (NCI-H460 lung) of 0.656 µM and a TGI (HCC-2998 colon) of 1.95 µM. For the same compound, the TGI (OVCAR-5 ovarian) was 2.33 µM, the TGI (SK-MEL-2 melanoma) was 0.845 µM and the TGI (MDA-MB-435) was 1.18 µM. For the same compound, the TGI (NCI-H226 lung) was 1.68 µM, the TGI (SK-MEL-5 melanoma) was 0.362 µM and the TGI (ACHN renal) was 1.46 µM. The TGI (UACC-257 melanoma) was 1.08 µM, the TGI (SK-OV-3 ovarian) was 1.45 µM and the TGI (NCI/ADR-RES ovarian) was over 89.3 µM. The TGI (OVCAR-3 ovarian) was 1.34 µM, the TGI (U251 CNS) was 1.09 µM and the TGI (MDA-N) was 1.23 µM. For the same compound, the TGI (CAKI-1 renal) was 0.782 µM and the TGI (T-47D breast) was 1.38 µM.
